In brackets after ≈: the same amount, converted by molar mass. Read-outs that look alike come from different tables or passages of the source.
What was measured:
[1] = test system: E. coli W3110 gyrA S97L, S83L, D87N; assay: MIC against CRISPR/Cas9 gyrA point mutants; assay type: cell-based, Escherichia coli; conditions: for susceptibility of gyrA S97L mutant: CRISPR–Cas9 S97L; for MIC: Escherichia coli
Experimental: (§1) MIC was determined by broth microdilution. Single-colony cultures were grown to exponential phase (OD600 of 0.5) aerobically at 37 °C. In case of strains from the Keio collection, 50 µg ml^−1 kanamycin was supplemented to the media to ascertain a homogeneous population. The bacterial suspensions were diluted 100-fold in CAMHB and 50 µl was added to a twofold serial dilution series of test compounds (50 µl per well) in polypropylene 96-well microtitre plates to reach a volume of 100 µl. The plates were sealed with breathable membranes and incubated overnight at 37 °C with constant shaking (600 r.p.m.). The MIC was determined as the lowest concentration at which no visible bacterial growth was observed as compared with the inoculum controls from the median of a minimum of triplicates.
Mutants of the DNA gyrase subunit A encoding gene (gyrA) were constructed following the protocol for gene editing via the CRISPR–Cas9 system. Strains and plasmids used are listed in Supplementary Table 15, and primers used can be found in Supplementary Table 16. The following mutations were created: S97L in E. coli W3110. Two common mutations in the gyrA gene that give resistance to fluoroquinolone antibiotics were created in E. coli W3110, namely S83L and D87N. To create the gyrA (S97L) mutants, the construct psgRNA-gyrA-M5 was assembled as follows: The 20-nt spacer sequence was introduced by PCR on pTargetF using primers gyrA_P11 and gyrA_P12, the homology-directed repair (HDR) arms were amplified from E. coli W3110 genomic DNA by PCR using primer pairs gyrA_P05 and gyrA_P013, and gyrA_P08 and gyrA_P14. The three PCR fragments generated were cloned into the SpeI and BglII digested pTargetF via Gibson assembly. To avoid off-target effects of CRISPR, besides desired point mutation for gyrA (S97L), four other silent point mutations were also included in the HDR template. Consequently, the amino acid sequence of gyrA will remain the same in the generated mutant except for the desired mutation. Similarly, constructs psgRNA-gyrA-S83L and psgRNA-gyrA-D87N were created to introduce mutations S83L and D87N in gyrA, respectively. In psgRNA-gyrA-S83L, spacer sequence was introduced using primers gyrA_P12 and gyrA_P17, HDR template was amplified using primer pairs gyrA_P05 and gyrA_P18, and gyrA_P08 and gyrA_P19. In psgRNA-gyrA-D87N, spacer sequence was introduced using primers gyrA_P12 and gyrA_P20, HDR template was amplified using primer pairs gyrA_P05 and gyrA_P21, and gyrA_P08 and gyrA_P22. The verified constructs for gyrA engineering were transformed into E. coli W3110 carrying pCas9, and plated in LB containing kanamycin (50 µg ml^−1) for the selection of the pCas9 plasmid and spectinomycin (100 µg ml^−1) for the selection of psgRNA-gyrA-X. The plates were incubated at 30 °C. Plasmids were cured by growing the strains with 0.5 mM isopropylthiogalactoside with no antibiotics to lose first the psgRNA-gyrA plasmids. After losing the spectinomycin resistance, the strain was grown in LB with no antibiotics at 42 °C to lose the pCas plasmid. Colony PCR was performed on plasmid-free colonies using primers gyrA_P9 and gyrA_P10, and PCR products were sequenced to confirm the desired mutation

[2] = test system: clinical isolates of E. coli; assay: MIC against clinical isolates and potentiation by 4 µM PMBN; assay type: cell-based, Escherichia coli; conditions: for MIC: Escherichia coli
Experimental: as §1, with “r.p.m.).” for “r.p.m.). The MIC was determined as the lowest concentration at which no visible bacterial growth was observed as compared with the inoculum controls from the median of a minimum of triplicates.”

[3] = test system: A. baumannii ATCC BAA747; assay: MIC by broth microdilution; assay type: cell-based; conditions: Acinetobacter baumannii, ATCCBAA747; read-out: MIC A. baumannii ATCC BAA747
Experimental: as §1

[4] = test system: P. aeruginosa ATCC 27853; assay: MIC by broth microdilution; assay type: cell-based; conditions: Pseudomonas aeruginosa, ATCC27853; read-out: MIC P. aeruginosa ATCC 27853
Experimental: as §1

[5] = test system: S. aureus ATCC 29213 / ATCC BAA1717; assay: MIC by broth microdilution; assay type: cell-based; conditions: Staphylococcus aureus
Experimental: as §1

[6] = test system: 60-resistant (60-r) isolates of E. coli W3110; assay: microbe, parasite or virus in culture; assay type: cell-based, Escherichia coli; conditions: Escherichia coli
Experimental: as §1
The plates were incubated at 37 °C and checked for growth after 24 and 48 h. […] Nine colonies with an increased MIC were selected for further analysis and stored as glycerol stocks.

[7] = test system: E. coli BW25113 and single-gene knockouts; assay: MIC on E. coli strains of the Keio collection; assay type: cell-based, Escherichia coli; conditions: for MIC: Escherichia coli
Experimental: as §1

[8] = test system: E. coli W3110; assay: MIC by broth microdilution; assay type: cell-based, Escherichia coli; conditions: Escherichia coli, W3110, WT, broth microdilution; read-out: MIC E. coli W3110
Procedure, shortened: (§2)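 Broth microdilution in CAMHB: twofold compound series inoculated with 100-fold-diluted bacteria from exponential growth (OD600 0.5, 37 °C); kanamycin 50 µg ml^−1 added for Keio collection strains. Overnight incubation, 37 °C, 600 r.p.m. shaking.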

[9] = test system: K. pneumoniae ATCC 29665; assay: MIC by broth microdilution; assay type: cell-based, Klebsiella pneumoniae; conditions: Klebsiella pneumoniae
Procedure, shortened: as §2

[10] = E. coli W3110 gyrA D87N (FQ-resistant 2)
[11] = E. coli W3110 gyrA S83L (FQ-resistant 1)
[12] = E. coli W3110 gyrA S97L (LEI-800-resistant)
[13] = E. coli 1075, fold change in MIC after 4 µM PMBN
[14] = E. coli 552059.1, fold change in MIC after 4 µM PMBN
[15] = E. coli 552059.1, with 4 µM PMBN
[16] = E. coli 552060.1, fold change in MIC after 4 µM PMBN
[17] = E. coli 552060.1, with 4 µM PMBN
[18] = E. coli MVAST0072, fold change in MIC after 4 µM PMBN
[19] = E. coli MVAST0072, with 4 µM PMBN
[20] = E. coli NCTC13463, fold change in MIC after 4 µM PMBN
[21] = E. coli NCTC13463, with 4 µM PMBN
[22] = E. coli NCTC13846, fold change in MIC after 4 µM PMBN
[23] = E. coli NCTC13846, with 4 µM PMBN
[24] = E. coli mcr-1, fold change in MIC after addition of 4 µM PMBN
[25] = E. coli 1075 (MDR), read-out: MIC
[26] = E. coli 552059.1, read-out: MIC
[27] = E. coli 552060.1, read-out: MIC
[28] = E. coli MVAST0072 (MDR), read-out: MIC
[29] = NCTC13463, E. coli NCTC13463 (ESBL), read-out: MIC
[30] = NCTC13846, E. coli NCTC13846 (MDR, mcr-1)
[31] = read-out: MIC S. aureus ATCC 29213
[32] = read-out: MIC S. aureus ATCC BAA1717
[33] = BW25113, read-out: MIC E. coli BW25113, parent strain

O=S(=O)(NC[C@@H]1CC[C@H](c2ccc(-c3cccnc3)cc2)N1)c1cccc2cnccc12 [LEI-800]
susceptibility of gyrA S83L / D87N mutants [1]: did not affect the susceptibility | susceptibility of gyrA S97L mutant [1]: resistant | MIC [1, 10]: 6.25 µM (≈ 2.78 µg/mL) | MIC [1, 11]: 6.25 µM (≈ 2.78 µg/mL) | MIC [1, 12]: > 50 µM | FC [2, 13]: > 4 | MSC ([2]; E. coli 1075, with 4 µM PMBN): 12.5 µM | FC [2, 14]: 32 | MSC [2, 15]: 0.78 µM | FC [2, 16]: 16 | MSC [2, 17]: 1.5 µM | FC [2, 18]: 16 | MSC [2, 19]: 1.5 µM | FC [2, 20]: 8 | MSC [2, 21]: 0.4 µM | FC [2, 22]: 4 | MSC [2, 23]: 12.5 µM | FC [2, 24]: 4 | MSC ([2]; E. coli mcr-1, with 4 µM PMBN): 6.25 µM | MIC ([2]; CIP-resistant isolate 965 (MDR)): 12.5 µM | MIC ([2]; CIP-resistant isolate 991, read-out: MIC): 25 µM | MIC ([2]; CIP-resistant isolate 1022 (ESBL), read-out: MIC): 25 µM | MIC ([2]; CIP-resistant isolate 1104 (MDR), read-out: MIC): 25 µM | MIC ([2]; CIP-resistant isolate 1146 (MDR)): 6.25 µM | MIC ([2]; CIP-resistant isolate 1175 (MDR), read-out: MIC): 25 µM | MIC ([2]; CIP-resistant isolate 1192 (MDR), read-out: MIC): 50 µM | MIC ([2]; CIP-resistant isolate 1201 (MDR)): 12.5 µM | MIC ([2]; CIP-resistant isolate 1233, read-out: MIC): 12.5 µM | MIC [2, 25]: > 50 µM | MIC [2, 26]: 25 µM | MIC [2, 27]: 25 µM | MIC [2, 28]: 25 µM | MIC [2, 29]: 3.1 µM | MIC [2, 30]: 50 µM | FC ([2]; isolate 965, fold-change in MIC): 16 | MSC ([2]; isolate 965, with 4 μM PMBN): 0.8 µM | FC ([2]; isolate 991, fold-change in MIC): 8 | MSC ([2]; isolate 991, with 4 μM PMBN): 3.1 µM | FC ([2]; isolate 1022, fold-change in MIC): 16 | MSC ([2]; isolate 1022, with 4 μM PMBN): 1.6 µM | FC ([2]; isolate 1104, fold-change in MIC): 16 | MSC ([2]; isolate 1104, with 4 μM PMBN): 1.6 µM | FC ([2]; isolate 1146, fold-change in MIC): 8 | MSC ([2]; isolate 1146, with 4 μM PMBN): 0.8 µM | FC ([2]; isolate 1175, fold-change in MIC): 8 | MSC ([2]; isolate 1175, with 4 μM PMBN): 3.1 µM | FC ([2]; isolate 1192, fold-change in MIC): 16 | MSC ([2]; isolate 1192, with 4 μM PMBN): 3.1 µM | FC ([2]; isolate 1201, fold-change in MIC): 8 | MSC ([2]; isolate 1201, with 4 μM PMBN): 1.6 µM | FC ([2]; isolate 1233, fold-change in MIC): 8 | MSC ([2]; isolate 1233, with 4 μM PMBN): 1.6 µM | MIC [3]: 25 µM (≈ 11.1 µg/mL) | MIC [4]: > 50 µM | MIC [5, 31]: > 50 µM | MIC [5, 32]: > 50 µM | MIC ([6]; E. coli W3110 60-r1): > 50 µM | MIC ([6]; E. coli W3110 60-r3): 12.5 µM (≈ 5.56 µg/mL) | MIC ([6]; E. coli W3110 60-r6): 12.5 µM (≈ 5.56 µg/mL) | potency against ΔtolC efflux pump mutant [7]: No increase in potency | MIC ([7]; BW25113, JW3594 ΔrfaD): 0.4 µM (≈ 0.178 µg/mL) | MIC ([7]; BW25113, JW3596 ΔrfaC, LPS disruption (genetic)): 0.4 µM (≈ 0.178 µg/mL) | MIC ([7]; BW25113, JW3600 ΔrfaY): 1.6 µM (≈ 0.711 µg/mL) | MIC ([7]; BW25113, JW3602 ΔrfaI): 1.6 µM (≈ 0.711 µg/mL) | MIC ([7]; BW25113, JW3605 ΔrfaP): 0.4 µM (≈ 0.178 µg/mL) | MIC ([7]; BW25113, JW5503 ΔTolC): 3.1 µM (≈ 1.38 µg/mL) | MIC [7, 33]: 3.1 µM (≈ 1.38 µg/mL) | MIC [8]: 3.1 µM (≈ 1.38 µg/mL) | MIC ([9]; ATCC29665, read-out: MIC K. pneumoniae ATCC 29665): 6.25 µM (≈ 2.78 µg/mL)

O=S(=O)(NC[C@@H]1CC[C@H](c2ccc(-c3ccc(F)cc3)cc2)N1)c1cccc2cnccc12 [Compound 101]
susceptibility of gyrA S97L mutant [1]: resistant | MIC [1, 10]: 3.1 µM (≈ 1.43 µg/mL) | MIC [1, 11]: 3.1 µM (≈ 1.43 µg/mL) | MIC [1, 12]: > 50 µM | FC [2, 13]: 8 | MSC ([2]; E. coli 1075, with 4 µM PMBN): 6.25 µM | FC [2, 14]: 16 | MSC [2, 15]: 0.8 µM | FC [2, 16]: 16 | MSC [2, 17]: 0.8 µM | FC [2, 18]: 16 | MSC [2, 19]: 0.8 µM | FC [2, 20]: 8 | MSC [2, 21]: 0.4 µM | FC [2, 22]: 4 | MSC [2, 23]: 3.1 µM | FC [2, 24]: 4 | MSC ([2]; E. coli mcr-1, with 4 µM PMBN): 3.1 µM | MIC [2, 25]: 50 µM | MIC [2, 26]: 12.5 µM | MIC [2, 27]: 12.5 µM | MIC [2, 28]: 12.5 µM | MIC [2, 29]: 3.1 µM | MIC [2, 30]: 12.5 µM | MIC [3]: 25 µM (≈ 11.5 µg/mL) | MIC [4]: > 50 µM | MIC [5, 31]: > 50 µM | MIC [5, 32]: > 50 µM | MIC ([6]; E. coli W3110 60-r1): > 50 µM | MIC ([6]; E. coli W3110 60-r3): 6.25 µM (≈ 2.88 µg/mL) | MIC ([6]; E. coli W3110 60-r6): 3.1 µM (≈ 1.43 µg/mL) | MIC [7, 33]: 1.6 µM (≈ 0.738 µg/mL) | MIC [8]: 1.6 µM (≈ 0.738 µg/mL) | MIC ([9]; ATCC29665, broth microdilution, read-out: MIC K. pneumoniae ATCC 29665): 3.1 µM (≈ 1.43 µg/mL)

Reference: article PMC11374673, “Discovery of isoquinoline sulfonamides as allosteric gyrase inhibitors with activity against fluoroquinolone-resistant bacteria” (Nature Chemistry, 2024)
